Test [1] has as its target T1, human full-length glucocorticoid receptor (Homo sapiens, UniProt P04150).
T1 sequence (P04150 1-777): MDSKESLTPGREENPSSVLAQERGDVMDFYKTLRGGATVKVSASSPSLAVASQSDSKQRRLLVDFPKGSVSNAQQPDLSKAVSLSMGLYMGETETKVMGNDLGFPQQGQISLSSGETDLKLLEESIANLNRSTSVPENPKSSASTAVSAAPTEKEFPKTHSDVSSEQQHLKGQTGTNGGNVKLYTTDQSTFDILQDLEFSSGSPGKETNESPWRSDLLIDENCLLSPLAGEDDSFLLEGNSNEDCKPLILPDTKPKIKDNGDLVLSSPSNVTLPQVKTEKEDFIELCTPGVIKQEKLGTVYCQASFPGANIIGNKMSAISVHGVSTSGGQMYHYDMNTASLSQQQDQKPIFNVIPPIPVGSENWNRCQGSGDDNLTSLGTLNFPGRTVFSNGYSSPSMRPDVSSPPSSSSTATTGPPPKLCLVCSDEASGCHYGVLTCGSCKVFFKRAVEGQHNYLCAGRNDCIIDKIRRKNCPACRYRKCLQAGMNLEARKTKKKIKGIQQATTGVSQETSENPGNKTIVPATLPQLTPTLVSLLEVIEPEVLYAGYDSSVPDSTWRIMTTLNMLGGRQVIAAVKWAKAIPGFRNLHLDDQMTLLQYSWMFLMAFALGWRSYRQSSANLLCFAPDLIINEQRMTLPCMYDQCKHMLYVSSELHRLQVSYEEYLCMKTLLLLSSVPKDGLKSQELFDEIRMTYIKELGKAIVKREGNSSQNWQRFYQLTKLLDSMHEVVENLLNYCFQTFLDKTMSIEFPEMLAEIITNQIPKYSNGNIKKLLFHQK
The test can be described thus: Glucocorticoid Receptor Binding Assay (I), fluorescence polarization, Fluormone GS Red. Also noted: purified human recombinant full-length glucocorticoid receptor; purchased Invitrogen Part #2893. As for the experimental part: Glucocorticoid Receptor Binding Assay (I)^a
Briefly, purified human recombinant full-length glucocorticoid receptor (2 nM) was mixed with fluorescently labeled glucocorticoid (1 nM Fluormone GS Red) in the presence or absence of test compound. After two hour incubation at room temperature in the dark, the fluorescence polarization (FP) of the samples was measured. […] Test compounds were analyzed in the concentration range from 8.5E-05 μM to 5 μM.
Background: Fluorescence polarisation rises when a labelled molecule tumbles more slowly, as on binding a larger partner.

Test [2] deals with AP-1 induced transcriptional activity. Nature of the test: Cellular Transrepressional Assay (AP-1 luciferase reporter, PMA-activated A549 cells). The test is classed as cell-based. The settings on record: Homo sapiens; for Emax: A549, 7 h, maximum inhibition, Cellular Transrepression Assay, read-out: AP-1 Max % inh (Cellular Transrepression Assay); for EC50: A549, Cellular Transrepression Assay. In outline: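 A549 cells stably carrying a 7× AP-1–luciferase reporter were stimulated with 10 ng/ml PMA with or without compound (0.1 nM–40 μM) for 7 h. Luminescence read 10 min after luciferase reagent; EC50 fitted from % decrease versus PMA-only signal.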
A general note: A reporter such as luciferase makes a cellular process visible.

Where [3] appears, read: GR Binding Assay (I), read-out: GR (Ki, nM) (GR Binding Assay (I)).

Like-named read-outs stand apart in the source and are kept apart here.

What is called Ki is the dissociation constant of the complex between target and ligand, obtained from inhibition or displacement. For orientation: EC50 means the concentration at which the effect is half-maximal.

With `CC(C(=O)Nc1nncs1)C1c2ccccc2Oc2nc(-c3ccc(C(=O)N(C)C)cc3)ccc21` (mixture of isomers) [Example 482], the Ki in test [1] (setting [3]) was determined as 45 nM.

Turning to `O=C(c1ccc(-c2ccc3c(n2)Oc2ccccc2C3C2(C(=O)Nc3nncs3)CCC2)cc1)N1CCOCC1` (single isomer, unassigned) [Example 487], in test [1] (setting [3]), the Ki is over 1150 nM. Turning to `CC(C)(C(=O)Nc1nncs1)C1c2cccnc2Oc2c(F)cccc21` (stereo not drawn) [Example 72], the Ki in test [1] (setting [3]) is over 1150 nM. Take `CC(C)(C(=O)Nc1nncs1)C1c2ccccc2Oc2cc(-c3ccc(C(=O)O)cn3)ccc21` (stereo not drawn) [Example 101]: in test [1] (setting [3]), the Ki came out at 19.8 nM. The same measure, in the same setting: the figure for `CC(C)(C(=O)Nc1nncs1)C1c2ccccc2Oc2cc(-c3ccc(C(=O)O)s3)ccc21` (stereo not drawn) [Example 103] is 6.06 nM; for `CN(C)C(=O)c1ccc(-c2ccc3c(c2)Oc2ccccc2C3C(C)(C)C(=O)Nc2nncs2)s1` (stereo not drawn) [Example 104] it is 4.5 nM.

For `CC(C)(C(=O)Nc1nncs1)C1c2ccccc2Oc2cc(-c3ncc(C(=O)O)cn3)ccc21` (stereo not drawn) [Example 108], in test [1] (setting [3]), the inhibitory constant (Ki) came to 13.6 nM. For the molecule `CC(C)(C(=O)Nc1nncs1)C1c2ccccc2Oc2cc(C(N)=O)ccc21` (stereo not drawn) [Example 113], the Ki in test [1] (setting [3]) turned out to be 62.6 nM.

Regarding `CC(C)(C(=O)Nc1nncs1)C1c2ccccc2Oc2cc(C(=O)O)ccc21` (stereo not drawn) [Example 114], in test [1] (setting [3]), the Ki worked out at 49.9 nM. For `CC(C)(C(=O)Nc1nncs1)C1c2ccccc2Oc2cc(C(=O)N3CCOCC3)ccc21` (stereo not drawn) [Example 116], the Ki in test [1] (setting [3]) is 346 nM. On the same count and under the same terms, the figure for `CNC(=O)c1ccc2c(c1)Oc1ccccc1C2C(C)(C)C(=O)Nc1nncs1` (stereo not drawn) [Example 117] is 123 nM; for `CC(C)(C(=O)Nc1nncs1)C1c2ccccc2Oc2cc(C(=O)NCc3ccccc3)ccc21` (stereo not drawn) [Example 118] it is 76.6 nM; for `CC(C)(C(=O)Nc1nncs1)C1c2ccccc2Oc2cc(NC(=O)NCc3ccccc3)ccc21` (stereo not drawn) [Example 122] it is 80 nM. The same measure, in the same setting: the figure for `CC(C)(C(=O)Nc1nncs1)C1c2ccccc2Oc2cc(NC(=O)Nc3nccs3)ccc21` (stereo not drawn) [Example 123] is 17.8 nM; for `CC(C)(C(=O)Nc1nncs1)C1c2ccccc2Oc2cc(NC(=O)NC3CC3)ccc21` (stereo not drawn) [Example 124] it is 65.1 nM; for `CN(C)C(=O)c1ccc(-c2ccc3c(n2)Oc2ccccc2[C@H]3C(C)(C)C(=O)Nc2nncs2)cc1` [Example 168] it is 486 nM. In the case of `CC(C)(C(=O)Nc1nncs1)[C@H]1c2ccccc2Oc2nc(-c3ccc(C(=O)O)cc3)ccc21` [Example 174], the Ki in test [1] is 10.2 nM. With `CC(C)(C(=O)Nc1nncs1)[C@H]1c2ccccc2Oc2nc(-c3ccc(C(=O)O)c(F)c3)ccc21` [Example 213], the Ki in test [1] (setting [3]) stood at 7.95 nM. Regarding `CC(C)(C(=O)Nc1nncs1)[C@H]1c2ccccc2Oc2nc(-c3ccc(S(C)(=O)=O)cc3)ccc21` [Example 214], the Ki in test [1] (setting [3]) turned out to be 1.37 nM. On to `CC(C)(C(=O)Nc1nncs1)[C@H]1c2ccccc2Oc2nc(-c3ccc(C(N)=O)cc3)ccc21` [Example 215], for which, in test [1], the Ki was determined as 2.5 nM. Turning to `CC(C)(C(=O)Nc1nncs1)[C@H]1c2ccccc2Oc2nc(-c3cc4ccccc4o3)ccc21` [Example 216], the Ki in test [1] (setting [3]) came out at 4.14 nM. On the same count and under the same terms, the figure for `COc1ccc(-c2ccc3c(n2)Oc2ccccc2[C@@H]3C(C)(C)C(=O)Nc2nncs2)cn1` [Example 218] is 1.24 nM; for `Cc1cc(-c2ccc3c(n2)Oc2ccccc2[C@@H]3C(C)(C)C(=O)Nc2nncs2)ccc1OC(C)C` [Example 224] it is 8.06 nM; for `CN(C)S(=O)(=O)c1ccc(-c2ccc3c(n2)Oc2ccccc2[C@@H]3C(C)(C)C(=O)Nc2nncs2)cc1` [Example 232] it is 4.57 nM. `CC(C)(C(=O)Nc1nncs1)[C@H]1c2ccccc2Oc2nc(-c3ccc(S(=O)(=O)N4CCOCC4)cc3)ccc21` [Example 233]: the Ki in test [1] (setting [3]) was 11.3 nM.

Take `CC(C)Oc1ccc(-c2ccc3c(n2)Oc2ccccc2[C@@H]3C(C)(C)C(=O)Nc2ncns2)cc1F` [Example 459]: in test [2], the Emax came out at 35.4% and the EC50 is 102 nM. For `Cc1nnc(NC(=O)C(C)(C)[C@H]2c3ccccc3Oc3nc(-c4ccc(C(=O)N5CCCC5)cc4)ccc32)s1` [Example 460], in that order: 56.9% and 30.3 nM. In the case of `Cc1nnc(NC(=O)C(C)(C)[C@H]2c3ccccc3Oc3nc(-c4ccc(OC(C)C)cc4)ccc32)s1` [Example 461], in test [2], the Emax stood at 50.8% and the concentration giving a half-maximal response (EC50) came to 53.4 nM.

Consider `CC(C)(C(=O)Nc1nncs1)[C@H]1c2ccccc2Oc2nc(-c3ccc(C(=O)N4CCOCC4)s3)ccc21` [Example 463], for which, in test [2], the Emax came to 26.2% and the EC50 was 45.3 nM. In the case of `CCN(C)C(=O)c1ccc(-c2ccc3c(n2)Oc2ccccc2[C@@H]3C(C)(C)C(=O)Nc2nnc(C)s2)cc1` [Example 464], in test [2], the Emax was determined as 54% and the half-maximal effective concentration (EC50) worked out at 18.2 nM. The like results for `Cc1nnc(NC(=O)C(C)(C)[C@H]2c3ccccc3Oc3nc(-c4ccc(C(=O)N5CCOCC5)cc4)ccc32)s1` [Example 465] were, in that order, 61.5% and 16.6 nM.

With `Cc1nnc(NC(=O)C(C)(C)[C@H]2c3ccccc3Oc3nc(-c4ccc(C(=O)N5CCC(F)(F)C5)cc4)ccc32)s1` [Example 466], in test [2], the Emax was found to be 56.1% and the EC50 was found to be 28.2 nM. For `CCN(C)C(=O)c1ccc(-c2ccc3c(n2)Oc2ccccc2[C@@H]3C(C)(C)C(=O)Nc2ncns2)cc1` [Example 467], in that order: 57.5% and 15 nM. The like results for `CC(C)(C(=O)Nc1ncns1)[C@H]1c2ccccc2Oc2nc(-c3ccc(C(=O)N4CCOCC4)c(F)c3)ccc21` [Example 468] were, in that order, 53.3% and 35.4 nM. For `CC(C)(C(=O)Nc1nncs1)[C@H]1c2ccccc2Oc2nc(-c3ccc(CO)s3)ccc21` [Example 470], in that order: 43% and 24.6 nM. As to `CN(C)C(=O)c1ccc(-c2ccc3c(n2)Oc2ccccc2[C@@H]3C(C)(C)C(=O)Nc2ncns2)cc1` [Example 471], in test [2], the Emax came to 52.4% and it took 63.9 nM to reach a half-maximal effect (EC50). For `Cc1nnc(NC(=O)C(C)(C)[C@H]2c3ccccc3Oc3nc(-c4ccc(C(=O)N5CCOCC5)c(F)c4)ccc32)s1` [Example 472], in that order: 47% and 26.9 nM. For `Cc1nnc(NC(=O)C(C)(C)[C@H]2c3ccccc3Oc3nc(-c4ccc(C(=O)N5CCOCC5)c(Cl)c4)ccc32)s1` [Example 473], in that order: 52.5% and 40.2 nM.

Take `Cc1nnc(NC(=O)C(C)(C)[C@H]2c3ccccc3Oc3nc(-c4ccc(C(=O)N(C)C)c(F)c4)ccc32)s1` [Example 474]: in test [2], the Emax worked out at 37.9% and the EC50 was 85.4 nM. The like results for `Cc1nnc(NC(=O)C(C)(C)[C@H]2c3ccccc3Oc3nc(-c4ccc(C(=O)N5CCC(F)(F)C5)c(F)c4)ccc32)s1` [Example 477] were, in that order, 44.8% and 39.8 nM.

Regarding `Cc1nsc(NC(=O)C(C)(C)[C@H]2c3ccccc3Oc3nc(-c4ccc(C(=O)N5CCOCC5)cc4)ccc32)n1` [Example 478], in test [2], the Emax was 41.8% and the concentration for a half-maximal effect (EC50) came to 16 nM. The like results for `CN(C)C(=O)c1ccc(-c2ccc3c(n2)Oc2ccccc2C3C2(C(=O)Nc3nncs3)CCC2)cc1` (stereo not drawn) [Example 479] were, in that order, 44.4% and 47 nM. For the molecule `CN(C)C(=O)c1ccc(-c2ccc3c(n2)Oc2ccccc2C3C2(C(=O)Nc3nncs3)CCCC2)cc1` (stereo not drawn) [Example 484], in test [2], the Emax was found to be 29.8% and the EC50 was found to be 19.3 nM. For `CN(C)C(=O)c1ccc(-c2ccc3c(n2)Oc2ccccc2C3C2(C(=O)Nc3ncns3)CCCC2)cc1` (stereo not drawn) [Example 485], in that order: 38.9% and 42.4 nM. The like results for `O=C(c1ccc(-c2ccc3c(n2)Oc2ccccc2C3C2(C(=O)Nc3nncs3)CCC2)cc1)N1CCOCC1` (stereo not drawn) [Example 486] were, in that order, 50.3% and 15.8 nM. For the molecule `Cc1nnc(NC(=O)C2(C3c4ccccc4Oc4nc(-c5ccc(C(=O)N(C)C)cc5)ccc43)CCC2)s1` (stereo not drawn) [Example 488], in test [2], the Emax was determined as 34.5% and it took 42.9 nM to reach a half-maximal effect (EC50). For `CC(C)(C(=O)Nc1nncs1)C1c2ccccc2Oc2cc(-c3ccc(C(=O)N4CCOCC4)cc3)ncc21` (stereo not drawn) [Example 492], in that order: 28.4% and 182 nM.

These data come from patent publication US8034940B2, “Modulators of glucocorticoid receptor, AP-1, and/or NF-κB activity and use thereof” (Bristol-Myers Squibb Company, priority 2006, dated 2011).
